From ChEMBL document CHEMBL1240437, “Structural characterization and antibacterial activity against clinical isolates of Staphylococcus of N-phenylamide of monensin A and its 1:1 complexes with monovalent cations” (2010)
Values after ≈ are worked out from the molar mass of the structure shown.

Assays:
Type in all cases: functional
[1] = system: Staphylococcus epidermidis; assay: Antimicrobial activity against methicillin-resistant Staphylococcus epidermidis 311/08 after 18 hrs by disc-diffusion method; details: 311/08, 18 h
Staphylococcus aureus [2] = assay: Antimicrobial activity against methicillin-susceptible Staphylococcus aureus 338/08 after 18 hrs by disc-diffusion method; details: 338/08, 18 h
Staphylococcus aureus [3] = assay: Antimicrobial activity against methicillin-resistant Staphylococcus aureus 334/08 after 18 hrs by disc-diffusion method; details: 334/08, 18 h
[4] = system: Staphylococcus epidermidis; assay: Antimicrobial activity against methicillin-resistant Staphylococcus epidermidis 290/08 after 18 hrs by disc-diffusion method; details: 290/08, 18 h
Staphylococcus aureus [5] = assay: Antimicrobial activity against methicillin-resistant Staphylococcus aureus 309/08 after 18 hrs by disc-diffusion method; details: 309/08, 18 h
Staphylococcus aureus [6] = assay: Antimicrobial activity against methicillin-susceptible Staphylococcus aureus 321/08 after 18 hrs by disc-diffusion method; details: 321/08, 18 h
Staphylococcus aureus [7] = assay: Antimicrobial activity against methicillin-susceptible Staphylococcus aureus 320/08 after 18 hrs by disc-diffusion method; details: 320/08, 18 h
Staphylococcus aureus [8] = assay: Antimicrobial activity against methicillin-resistant Staphylococcus aureus 332/08 after 18 hrs by disc-diffusion method; details: 332/08, 18 h
[9] = system: Staphylococcus epidermidis; assay: Antimicrobial activity against methicillin-resistant Staphylococcus epidermidis 291/08 after 18 hrs by disc-diffusion method; details: 291/08, 18 h
Staphylococcus aureus [10] = assay: Antimicrobial activity against methicillin-resistant Staphylococcus aureus 307/08 after 18 hrs by disc-diffusion method; details: 307/08, 18 h
Staphylococcus aureus [11] = assay: Antimicrobial activity against methicillin-resistant Staphylococcus aureus 335/08 after 18 hrs by disc-diffusion method; details: 335/08, 18 h
Staphylococcus aureus [12] = assay: Antimicrobial activity against methicillin-resistant Staphylococcus aureus 331/08 after 18 hrs by disc-diffusion method; details: 331/08, 18 h
Staphylococcus aureus [13] = assay: Antimicrobial activity against methicillin-resistant Staphylococcus aureus 329/08 after 18 hrs by disc-diffusion method; details: 329/08, 18 h
Staphylococcus aureus [14] = assay: Antimicrobial activity against methicillin-susceptible Staphylococcus aureus 327/08 after 18 hrs by disc-diffusion method; details: 327/08, 18 h
[15] = system: Staphylococcus epidermidis; assay: Antimicrobial activity against methicillin-resistant Staphylococcus epidermidis 317/08 after 18 hrs by disc-diffusion method; details: 317/08, 18 h
Staphylococcus aureus [16] = assay: Antimicrobial activity against methicillin-resistant Staphylococcus aureus 333/08 after 18 hrs by disc-diffusion method; details: 333/08, 18 h
Staphylococcus aureus [17] = assay: Antimicrobial activity against methicillin-susceptible Staphylococcus aureus 339/08 after 18 hrs by disc-diffusion method; details: 339/08, 18 h
[18] = system: Staphylococcus epidermidis; assay: Antimicrobial activity against methicillin-resistant Staphylococcus epidermidis 289/08 after 18 hrs by disc-diffusion method; details: 289/08, 18 h
Staphylococcus aureus [19] = assay: Antimicrobial activity against methicillin-resistant Staphylococcus aureus 308/08 after 18 hrs by disc-diffusion method; details: 308/08, 18 h
[20] = system: Staphylococcus epidermidis; assay: Antimicrobial activity against methicillin-resistant Staphylococcus epidermidis 318/08 after 18 hrs by disc-diffusion method; details: 318/08, 18 h
Staphylococcus aureus [21] = assay: Antimicrobial activity against methicillin-susceptible Staphylococcus aureus 319/08 after 18 hrs by disc-diffusion method; details: 319/08, 18 h
Staphylococcus aureus [22] = assay: Antimicrobial activity against methicillin-susceptible Staphylococcus aureus 322/08 after 18 hrs by disc-diffusion method; details: 322/08, 18 h
[23] = system: Staphylococcus epidermidis; assay: Antimicrobial activity against methicillin-resistant Staphylococcus epidermidis 293/08 after 18 hrs by disc-diffusion method; details: 293/08, 18 h
Staphylococcus aureus [24] = assay: Antimicrobial activity against methicillin-susceptible Staphylococcus aureus 324/08 after 18 hrs by disc-diffusion method; details: 324/08, 18 h
[25] = system: Staphylococcus epidermidis; assay: Antimicrobial activity against methicillin-resistant Staphylococcus epidermidis 316/08 after 18 hrs by disc-diffusion method; details: 316/08, 18 h
[26] = system: Staphylococcus epidermidis; assay: Antimicrobial activity against methicillin-resistant Staphylococcus epidermidis 315/08 after 18 hrs by disc-diffusion method; details: 315/08, 18 h
[27] = system: Staphylococcus epidermidis; assay: Antimicrobial activity against methicillin-resistant Staphylococcus epidermidis 292/08 after 18 hrs by disc-diffusion method; details: 292/08, 18 h
Staphylococcus aureus [28] = assay: Antimicrobial activity against methicillin-susceptible Staphylococcus aureus 328/08 after 18 hrs by disc-diffusion method; details: 328/08, 18 h
Staphylococcus aureus [29] = assay: Antimicrobial activity against methicillin-resistant Staphylococcus aureus 330/08 after 18 hrs by disc-diffusion method; details: 330/08, 18 h
Staphylococcus aureus [30] = assay: Antimicrobial activity against methicillin-susceptible Staphylococcus aureus 326/08 after 18 hrs by disc-diffusion method; details: 326/08, 18 h

Row | Structure (SMILES) | MIC [1] [µM] | MIC (Staphylococcus aureus [2]) [µM] | MIC (Staphylococcus aureus [3]) [µM] | MIC [4] [µM] | MIC (Staphylococcus aureus [5]) [µM] | MIC (Staphylococcus aureus [6]) [µM] | MIC (Staphylococcus aureus [7]) [µM] | MIC (Staphylococcus aureus [8]) [µM] | MIC [9] [µM] | MIC (Staphylococcus aureus [10]) [µM] | MIC (Staphylococcus aureus [11]) [µM] | MIC (Staphylococcus aureus [12]) [µM] | MIC (Staphylococcus aureus [13]) [µM] | MIC (Staphylococcus aureus [14]) [µM] | MIC [15] [µM] | MIC (Staphylococcus aureus [16]) [µM] | MIC (Staphylococcus aureus [17]) [µM] | MIC [18] [µM] | MIC (Staphylococcus aureus [19]) [µM] | MIC [20] [µM] | other results
1 | CC[C@@]1([C@H]2O[C@@H]([C@H]3O[C@@](O)(CO)[C@H](C)C[C@@H]3C)C[C@@H]2C)CC[C@@H]([C@]2(C)CC[C@]3(C[C@H](O)[C@@H](C)[C@@H]([C@@H](C)[C@@H](OC)[C@H](C)C(=O)Nc4ccccc4)O3)O2)O1 | 8.37 (≈ 6.24 µg/mL) | 8.37 (≈ 6.24 µg/mL) | 8.37 (≈ 6.24 µg/mL) | 16.8 (≈ 12.5 µg/mL) | 8.37 (≈ 6.24 µg/mL) | 16.8 (≈ 12.5 µg/mL) | 16.8 (≈ 12.5 µg/mL) | 8.37 (≈ 6.24 µg/mL) | 8.37 (≈ 6.24 µg/mL) | 8.37 (≈ 6.24 µg/mL) | 8.37 (≈ 6.24 µg/mL) | 8.37 (≈ 6.24 µg/mL) | 8.37 (≈ 6.24 µg/mL) | 8.37 (≈ 6.24 µg/mL) | 8.37 (≈ 6.24 µg/mL) | 8.37 (≈ 6.24 µg/mL) | 33.5 (≈ 25 µg/mL) | 8.37 (≈ 6.24 µg/mL) | 8.37 (≈ 6.24 µg/mL) | 33.5 (≈ 25 µg/mL) | MIC (Staphylococcus aureus [21]): 8.37 µM (≈ 6.24 µg/mL); MIC (Staphylococcus aureus [22]): 16.8 µM (≈ 12.5 µg/mL); MIC [23]: 8.37 µM (≈ 6.24 µg/mL); MIC (Staphylococcus aureus [24]): 8.37 µM (≈ 6.24 µg/mL); MIC [25]: 8.37 µM (≈ 6.24 µg/mL); MIC [26]: 8.37 µM (≈ 6.24 µg/mL); MIC [27]: 16.8 µM (≈ 12.5 µg/mL); MIC (Staphylococcus aureus [28]): 33.5 µM (≈ 25 µg/mL); MIC (Staphylococcus aureus [29]): 8.37 µM (≈ 6.24 µg/mL); MIC (Staphylococcus aureus [30]): 8.37 µM (≈ 6.24 µg/mL)
2 | CC[C@@]1([C@@H]2O[C@@H]([C@H]3O[C@@](O)(CO)[C@H](C)C[C@@H]3C)C[C@@H]2C)CC[C@H]([C@]2(C)CC[C@]3(C[C@H](O)[C@@H](C)[C@@H]([C@@H](C)[C@@H](OC)[C@H](C)C(=O)O)O3)O2)O1 [MONENSIN] | 1.49 (≈ 1 µg/mL) | 2.98 (≈ 2 µg/mL) | 1.49 (≈ 1 µg/mL) | 2.98 (≈ 2 µg/mL) | 2.98 (≈ 2 µg/mL) | 2.98 (≈ 2 µg/mL) | 2.98 (≈ 2 µg/mL) | 1.49 (≈ 1 µg/mL) | 2.98 (≈ 2 µg/mL) | 2.98 (≈ 2 µg/mL) | 1.49 (≈ 1 µg/mL) | 1.49 (≈ 1 µg/mL) | 2.98 (≈ 2 µg/mL) | 2.98 (≈ 2 µg/mL) | 1.49 (≈ 1 µg/mL) | 1.49 (≈ 1 µg/mL) | 5.96 (≈ 4 µg/mL) | 2.98 (≈ 2 µg/mL) | 2.98 (≈ 2 µg/mL) | 5.96 (≈ 4 µg/mL) | MIC (Staphylococcus aureus [21]): 2.98 µM (≈ 2 µg/mL); MIC (Staphylococcus aureus [22]): 2.98 µM (≈ 2 µg/mL); MIC [23]: 1.49 µM (≈ 1 µg/mL); MIC (Staphylococcus aureus [24]): 1.49 µM (≈ 1 µg/mL); MIC [25]: 1.49 µM (≈ 1 µg/mL); MIC [26]: 1.49 µM (≈ 1 µg/mL); MIC [27]: 2.98 µM (≈ 2 µg/mL); MIC (Staphylococcus aureus [28]): 2.98 µM (≈ 2 µg/mL); MIC (Staphylococcus aureus [29]): 1.49 µM (≈ 1 µg/mL); MIC (Staphylococcus aureus [30]): 2.98 µM (≈ 2 µg/mL)
